Read-outs that look alike come from different tables or passages of the source.
Columns and labels:
[1] = molecular target: T1, P450 1B1 (Homo sapiens, UniProt Q16678); test: Inhibition of P450 1B1-dependent 7-ethoxyresorufin O-deethylation; conditions: for IC50: means and SE; for course of EROD Km values during the incubation: direct inhibitors
T1 sequence (Q16678 1-543): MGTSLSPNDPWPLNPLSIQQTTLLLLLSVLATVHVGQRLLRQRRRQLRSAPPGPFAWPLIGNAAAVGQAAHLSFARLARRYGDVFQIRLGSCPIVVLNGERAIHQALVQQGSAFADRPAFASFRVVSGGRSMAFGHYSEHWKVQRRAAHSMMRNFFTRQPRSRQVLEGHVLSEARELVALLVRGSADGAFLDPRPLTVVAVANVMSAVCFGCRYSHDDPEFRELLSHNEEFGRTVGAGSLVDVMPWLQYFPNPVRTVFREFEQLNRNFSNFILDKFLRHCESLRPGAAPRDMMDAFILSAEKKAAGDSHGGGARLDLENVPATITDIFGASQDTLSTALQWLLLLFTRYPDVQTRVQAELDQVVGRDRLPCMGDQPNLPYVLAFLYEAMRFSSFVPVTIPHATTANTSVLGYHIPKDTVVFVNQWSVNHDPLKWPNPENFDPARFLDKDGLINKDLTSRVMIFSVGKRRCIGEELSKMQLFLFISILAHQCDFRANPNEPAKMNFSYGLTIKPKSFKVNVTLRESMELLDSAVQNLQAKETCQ

[2] = molecular target: T1, P450 1B1; test: Quenching of P450 1B1; assay type: binding; conditions: extrapolated % quenching; 1.0 μM P450 1B1
[3] = molecular target: T1, P450 1B1; test: Quenching of PAH; conditions: for interaction with P450 1B1 (quenching of inhibitor fluorescence): inhibitors at 10 nM
[4] = molecular target: T1, P450 1B1; test: Spectral binding titrations with purified P450 1B1; conditions: for ΔAmax (ΔA~416-A~383) / wavelengths (peak/trough): 1 μM P450 1B1; for ΔAmax (ΔA~416-A~383): means ± S.E.; for wavelengths (peak/trough): pH 7.4
[5] = molecular target: T1, P450 1B1
[6] = molecular target: T2, P450 1A2 (Homo sapiens, UniProt P05177); test: Quenching of P450 fluorescence with inhibitors, P450 1A2; assay type: binding
T2 sequence (P05177 1-516): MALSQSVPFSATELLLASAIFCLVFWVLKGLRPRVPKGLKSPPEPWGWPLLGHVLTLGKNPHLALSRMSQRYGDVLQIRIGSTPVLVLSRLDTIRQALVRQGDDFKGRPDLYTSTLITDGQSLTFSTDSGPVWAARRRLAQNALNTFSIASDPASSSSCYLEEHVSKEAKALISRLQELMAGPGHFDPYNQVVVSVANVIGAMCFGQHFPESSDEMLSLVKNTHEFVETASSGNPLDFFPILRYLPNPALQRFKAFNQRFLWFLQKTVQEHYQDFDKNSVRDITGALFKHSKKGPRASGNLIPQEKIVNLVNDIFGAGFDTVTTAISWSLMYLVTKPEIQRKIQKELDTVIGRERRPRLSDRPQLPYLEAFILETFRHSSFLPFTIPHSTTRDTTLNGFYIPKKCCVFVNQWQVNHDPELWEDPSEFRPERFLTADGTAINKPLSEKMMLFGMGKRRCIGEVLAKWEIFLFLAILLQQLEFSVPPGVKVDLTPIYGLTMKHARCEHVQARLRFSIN

[7] = molecular target: T3, P450 1A1 (Homo sapiens, UniProt P04798); test: Quenching of P450 fluorescence with inhibitors, P450 1A1; assay type: binding
T3 sequence (P04798 1-512): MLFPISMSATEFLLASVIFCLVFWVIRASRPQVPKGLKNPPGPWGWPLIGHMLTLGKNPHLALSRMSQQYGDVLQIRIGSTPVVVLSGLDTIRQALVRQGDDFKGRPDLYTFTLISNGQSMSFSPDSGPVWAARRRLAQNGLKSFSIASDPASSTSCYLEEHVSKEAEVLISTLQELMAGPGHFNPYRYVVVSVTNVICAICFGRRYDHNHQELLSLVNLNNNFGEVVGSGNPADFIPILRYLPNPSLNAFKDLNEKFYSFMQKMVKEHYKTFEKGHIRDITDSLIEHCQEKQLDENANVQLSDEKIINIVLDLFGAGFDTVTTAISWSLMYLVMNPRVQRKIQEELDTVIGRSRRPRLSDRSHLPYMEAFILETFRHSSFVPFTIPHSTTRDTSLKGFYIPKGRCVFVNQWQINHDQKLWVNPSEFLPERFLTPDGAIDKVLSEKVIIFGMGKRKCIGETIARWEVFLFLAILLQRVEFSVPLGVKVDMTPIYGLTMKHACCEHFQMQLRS

[8] = inhibition of EROD activity IC50, 15 s of incubation time (direct and direct/restore inhibitors)

Row | SMILES | IC50 [1, 8] | PAH binding to P450 1B1 Bmax [2] | interaction with P450 1B1 (quenching of inhibitor fluorescence) [3] | also measured
1 | Cc1cc2ccccc2c2ccc3ccccc3c12 [5MeCh, 5-methylchrysene] | 0.008 ± 0.001 µM | 83 ± 5% | not found | –
2 | C#Cc1cc2ccccc2c2ccccc12 [9EPh, 9-ethynylphenanthrene] | 0.14 ± 0.018 µM | 52 ± 3% | – | course of EROD Km values during the incubation [1]: increased throughout the incubation period; Kd [4]: 3.6 ± 1 µM; ΔAmax (ΔA~416-A~383) [4]: 0.071 ± 0.010; wavelengths (peak/trough) [4]: 415/383; ΔAmax / Ks [5]: 0.020
3 | CC#Cc1cc2ccccc2c2ccccc12 [9PPh, 9-(1-propynyl)phenanthrene] | 0.11 ± 0.021 µM | 61 ± 3% | – | course of EROD Km values during the incubation [1]: increased throughout the incubation period; Kd [4]: 3.2 ± 0.3 µM; ΔAmax (ΔA~416-A~383) [4]: 0.049 ± 0.002; wavelengths (peak/trough) [4]: 416/383; ΔAmax / Ks [5]: 0.015
4 | c1ccc2cc3c(ccc4ccccc43)cc2c1 [B[a]A, benz[a]anthracene] | – | 46 ± 1% | – | IC50 ([1]; read-out: inhibition of EROD activity IC50, 15 s of incubation time (direct and direct/restore inhibitors)): 0.009 ± 0.001 µM
5 | c1ccc2c(c1)-c1cccc3c1c-2cc1ccccc13 [B[b]FA, benzo[b]fluoranthene] | 0.005 ± 0.001 µM | 91 ± 2% | not found | Kd [6]: ~10 µM; Kd [7]: ~10 µM
6 | c1ccc2c(c1)c1cccc3ccc4cccc2c4c31 [B[e]P, benzo[e]pyrene] | 0.017 ± 0.002 µM | 100 ± 6% | not found | –
7 | c1ccc2c3c(ccc2c1)-c1cccc2cccc-3c12 [B[j]FA, benzo[j]fluoranthene] | 0.044 ± 0.006 µM | – | – | –
8 | c1ccc2c(c1)ccc1nc3ccc4ccccc4c3cc12 [DB[a,j]Ac, dibenz[a,j]acridine] | 0.015 ± 0.002 µM | – | – | Kd [3]: 0.014 µM
9 | Cc1c2ccccc2c(C)c2c1ccc1ccccc12 [DMBA, 7,12-dimethylbenz[a]anthracene] | 0.3 ± 0.033 µM | 62 ± 1% | – | –
10 | c1ccc2c(c1)-c1cccc3cccc-2c13 [FA, fluoranthene] | 0.015 ± 0.001 µM | 91 ± 2% | not found | Kd [6]: ~10 µM; Kd [7]: ~10 µM
11 | c1ccc2c(c1)ccc1c3ccccc3ccc21 [chrysene] | 0.092 ± 0.011 µM | 84 ± 6% | not found | –

Reference: PMC2772130 (Chemical research in toxicology, 2008)
